# Laboratory results as given in patent publication US9968579B2, “ATRA for modulating Pin1 activity and stability” (Beth Israel Deaconess Medical Center, Inc., priority 2014, dated 2018).
# Assays:
# Pin1 PPIase domain = molecular target: T1, Pin1 PPIase domain (Homo sapiens, UniProt Q13526); experiment: FP-HTS / FP assay, competition with pTide probe for Pin1 binding; conditions: for interaction with Pin1 in FP assay: 0.5 h or 24 h incubation with Pin1; for Pin1 binding among retinoids tested: FIG. 4F
# T1 construct: Pin1 PPIase domain was used instead of its full-length protein
# From the text: A FP-HTS screening for small molecule compounds that may compete with pTide for binding to dephosphorylated and thus activated Pin1 was developed. Pin1 PPIase domain was used instead of its full-length protein to ensure the identification of compounds that selectively target the catalytic site of monomeric Pin1. The HTS probe pTide was conjugated with FITC or TAMRA and assay conditions optimized to ensure that the probe only binds to the catalytic active site with certain essential residues, such as K63 and R69 (PDB: 2Q5A).
# (§1) As observed in FIGS. 4B and 4C, 13cRA and its pairing compound ATRA include a carboxylic acid and a hydrophobic six-membered aromatic ring.
# To examine whether the carboxylic acid in ATRA serves as an alternative of phosphate group that binds to Pin1, several structurally similar retinoids with substituted carboxylic or aromatic groups, as well as the new generation of retinoid drugs including Fenretinide and Bexarotene were tested for Pin1 binding.
# cyclin D1 promoter = experiment: Cyclin D1 promoter activation by Pin1; format: cell-based; conditions: dose-dependent
# From the text: FIG. 6 illustrates study results 600 in which ATRA may have anticancer activity in other cancer types. Breast cancer was used as model due to the substantial oncogenic role of Pin1 in vitro and in vivo. The first step was to test whether ATRA may reverse the oncogenic phenotypes induced by Pin1 overexpression, including induction of centrosome amplification, activation of the cyclin D1 promoter, and enhancement of foci formation.
# [1] = tested on: Pin1 and substrate oncogenes and tumor suppressors; experiment: Protein levels of Pin1 and its substrates in breast cell lines; format: cell-based, human
# From the text: (I, J) Either ATRA (I) or inducible Pin1 KD (J) shared the same ability to reduce protein levels of Pin1 and its substrate oncogenes including cyclin D1, HER2, ERα, Akt, NFkB/p65, c-Jun and PKM2 as well as to increase protein levels of Pin1 substrate tumor suppressors, Smad and SMRT, in breast cancer MDA-MB-231, SKBR3 and T47D cells, with ATRA having little effects on normal MCF10A cells. TNBC, triple negative breast cancer.
# To further support that ATRA targets Pin1 in breast cancer, it was examined whether ATRA would affect protein levels of a selected set of oncogenes and tumor suppressors, whose protein stability is shown to be regulated by Pin1 in breast cancer. […] To further support that these effects of ATRA are due to Pin1 degradation, it was stably introduced tetracycline-inducible Pin1 KD into these cells. Inducible Pin1 KO produced the same effects on the oncogenes and tumor suppressors, as did ATRA (FIG. 6J). Taken together, ATRA selectively ablated activated Pin1 to inhibit many cancer-driving pathways simultaneously.
# MDA-MB-231 cells = experiment: MDA-MB-231 xenograft in nude mice; format: in vivo, female nude mice; conditions: intraperitoneally 3 times a week for 8 weeks
# Procedure: (A, B) ATRA inhibited tumor growth of MDA-MB-231 cells in mice. Female nude mice were flank-inoculated with 2×10^6 MDA-MB-231 cells and, 1 week later, implanted with 5 or 10 mg 21 day slow-releasing ATRA pellets. Tumor sizes were measured weekly and tumor tissues were collected from the mice after 7 weeks (A). Curves of tumor volume were plotted after calculation with formula of L×W^2×0.52 (B) (n=3).
# FIG. 7 illustrates study results 700 in which the slow-releasing ATRA inhibits human triple negative breast cancer tumor growth in mice. In the pilot experiments, female nude mice were subcutaneously injected with MDA-MB-231 cells into the flank, followed by administering ATRA or vehicle intraperitoneally 3 times a week for 8 weeks. […] This ATRA's modest anti-tumor activity could be due to its short half-life of less than 1 h in humans. Thus, slow-releasing ATRA pills to maintain its constant drug level in mice was used. Mice were again subcutaneously injected with MDA-MB-231 cells into the flank and implanted 1 week later with slow-releasing ATRA or placebo pills for 8 weeks. […] Tumor samples were then collected at the end and immunoblotted with antibodies against Pin1 and its target cyclin D1.
# [2] = tested on: MDA-MB-231 cells expressing Q33K or E100D Pin1 mutant; experiment: Xenograft of MDA-MB-231 cells expressing Q33K or E100D Pin1 mutant; design: species or system nude mice; conditions: mouse, in vivo
# Procedure: (H-J) ATRA inhibited tumor growth of MDA-MB-231 cells in mice, even after over-expression of monomeric Q33K or E100D Pin1 mutant. Nude mice were injected with 2×10^6 MDA-MB-231 cells and treated with ATRA pellets at indicated dosages. Tumors were harvested 7 weeks later. Quantitative curve of tumor volumes developed by Q33K (I) or E100D (J)-expressing MDA-MB-231 in the nude mice (n=3).
# It was examined whether ATRA is suitable for treating tumors driven by cancer-derived monomeric Pin1 mutants given that it induces degradation of monomeric Pin1. It is stably expressed WT, Q33K or E100D Flag-Pin1 in MDA-MB-231 cells, and then treated them with ATRA. […] Collectively, ATRA has potent anti-tumor activity against breast cancer driven by WT Pin1 or its cancer-derived monomeric mutants via ablating Pin1.
# [3] = tested on: PML-RARα and Pin1 in NB4 cells; experiment: PML-RARα and Pin1 protein levels in NB4 cells; format: cell-based, human
# [4] = tested on: APL cells isolated from hCG-PML-RARα transgenic mice
# breast cancer cells = experiment: Effect of pan-RARs inhibitor/activator on ATRA-induced Pin1 degradation and growth inhibition; format: cell-based, human
# From the text: To examine whether the inhibitory effects of ATRA on breast cancer cell growth were related to RAR activation, Ro-415253 and AC-93253 were used. […] Thus, ATRA-mediated growth inhibition is likely via Pin1 degradation in breast cancer cells, as in APL cells.
# Pin1 [5] = molecular target: T2, Pin1 (Homo sapiens, UniProt Q13526); experiment: In vitro PPIase assay; conditions: dose-dependent
# NB4 cells = experiment: Cell growth of NB4 cells; format: cell-based, human; conditions: combination with 1.5 μM ATRA; superior to high dose ATRA
# From the text: (K) Potentiated effects of ATRA with SIRT1 inhibitors, NAM or Splito, on cell growth of NB4.
# Next, in a consideration to test the role of activated Pin1 monomer in APL, the anti-proliferative effect of ATRA in the presence of the SIRT1 inhibitors, NAM or Splito, to deplete the monomeric Pin1 reservoir was examined.
# AU565 cells = experiment: ATRA sensitivity of AU565 cells in combination with SIRT1 inhibitors; format: cell-based, human; conditions: ATRA-resistant AU565 cells
# From the text: Moreover, SIRT1 KD cells were more sensitive to growth inhibition, and Pin1 degradation induced by ATRA. These findings support the notion that ATRA selectively targets the activated Pin1 monomer.
# Pin1 acetylation = Pin1 acetylation in cells (Flag IP, acetyl-lysine immunoblot); format: cell-based
# From the text: FIG. 1 depicts HTS results for glucose starvation induced Pin1 deacetylation in cells 100. In order to perform glucose starvation induced Pin1 deacetylation in cells, cells were transfected with Flag-Pin1 and subjected to various stresses, followed by Flag IP before with immunoblotting acetyl-lysine (AcK) or Flag antibody. Glu-, glucose starvation; HS, heat shock; UV, UV radiation. […] Overexpression of p300-HA increased Pin1 acetylation in cells. Various histone acetyl transferases were co-transfected with Flag-Pin1 into cells, followed by assaying acetylated Pin1. p300 inhibitors, Garcinol (Gar) and Anacardic acid (AnAc), reversed p300-increased Pin1 acetylation.
# To corroborate this notion, 2-deoxyglucose (2-DG), a glucose analog, was used to mimic glucose starvation (Wick et al., 1955). […] Protein acetylation may be catalytically modulated by a particular pair of histone acetyl transferase (HAT) and deacetylase (HDAC) (Yang and Seto, 2007). To identify the HAT and HDAC that modulates Pin1 acetylation, Flag-tagged Pin1 was expressed with several HATs including p300, CBP or GCN5 in cells, followed by coimmunoprecipitation (Co-IP) with anti-Flag antibody and immunoblotting with anti-acetyl lysine antibody.
# Pin1 S71E mutant = Pin1 S71E mutant (Homo sapiens, UniProt Q13526, S71E); experiment: Binding to phosphorylation-mimicking Pin1 S71E mutant
# From the text: as §1
# The levels of S71 phosphorylation in different cell lines were tightly correlated with ATRA's sensitivity. […] It has been previously shown that phosphorylation on S71 forms salt bridges with K63 and R69, which are the same two residues that coordinated for the binding to the carboxylic acid group of ATRA (FIG. 6H). Thus S71 phosphorylation by DAPK1 may regulate ATRA's sensitivity of cancer cells.
# Pin1 [6] = molecular target: T2, Pin1; conditions: read-out: Kd (affinity for Pin1); cited from earlier work
# cells = conditions: cited from earlier work
molecule,measurement,setting,value
"CC1=C(/C=C/C(C)=C/C=C/C(C)=C/C(=O)O)C(C)(C)CCC1 [ATRA, all-trans-retinoic acid]",interaction with Pin1 in FP assay,Pin1 PPIase domain,interacted with Pin1 in a dose-dependent manner
same,Pin1 binding among retinoids tested,Pin1 PPIase domain,most potent
same,"Pin1 binding potency, ATRA versus 13cRA",Pin1 PPIase domain; after 0.5 h Pin1 incubation,more potent than 13cRA
same,"Pin1 binding potency, ATRA versus 13cRA",Pin1 PPIase domain; after 24 h Pin1 incubation,the same potency
same,inhibition of Pin1 activation of the cyclin D1 promoter,cyclin D1 promoter,fully inhibited
same,"protein levels of Pin1 and oncogenic substrates (cyclin D1, HER2, ERα, Akt, NFkB/p65, c-Jun, PKM2)","[1]; T47D, SKBR3 or MDA-MB-231",dose-dependent protein reduction
same,protein levels of tumor suppressor substrates Smad2/3 or SMRT,"[1]; T47D, SKBR3 or MDA-MB-231",protein induction
same,"changes in Pin1, oncogenes or tumor suppressors",[1]; normal MCF10A cells,no appreciable changes
same,tumor size,MDA-MB-231 cells,slightly smaller tumors than control mice
same,Pin1 mutants and cyclin D1 in tumors,[2],dose-dependently reduced both Q33K and E100D Pin1 mutants and cyclin D1 in tumors
same,inhibition of Q33K or E100D Pin1 mutant-promoted xenograft tumor growth,[2],dose-dependently and effectively inhibited
O=C(O[C@@H]1Cc2c(O)cc(O)cc2O[C@@H]1c1cc(O)c(O)c(O)c1)c1cc(O)c(O)c(O)c1 [EGCG],PML-RARα degradation,[3],induced PML-RARα degradation in a dose-dependent manner
same,Pin1 degradation,[3],inhibited Pin1 without degrading it
same,PML-RARα in the bone marrow,[4]; after 20 days,dramatically reduced
same,condition of treated mice,"[4]; mouse, in vivo",rather sick
same,potency in reducing PML-RARα and spleen size compared with ATRA,"[4]; mouse, in vivo",less potent
same,spleen weights,[4]; versus enlarged spleens in placebo group,remained nearly at basal levels
CCCCCCCOc1cc2c(cc1/C(C)=C/c1ccc(C(=O)O)cc1)C(C)(C)CCS2(=O)=O [Ro-415253],effect on Pin1 degradation or cell growth inhibition induced by ATRA,breast cancer cells,neither the pan-RARs inhibitor nor the pan-RARs activator had any obvious effects
CC(=O)OC/C=C(C)/C=C/C=C(C)/C=C/C1=C(C)CCCC1(C)C [retinyl acetate],Pin1 binding among retinoids tested,Pin1 PPIase domain,completely inactive
"CC1=C(/C=C/C(C)=C/C=C/C(C)=C\C(=O)O)C(C)(C)CCC1 [13cRA, 13-cis-retinoic acid]",interaction with Pin1 in FP assay,Pin1 PPIase domain,interacted with Pin1 in a dose-dependent manner
same,rank as Pin1 inhibitor hit by Z score in FP-HTS,Pin1 PPIase domain; 8200 compound chemical libraries,No. 1 hit
same,inhibition of Pin1 PPIase activity,Pin1 [5],completely inhibited
C=C(c1ccc(C(=O)O)cc1)c1cc2c(cc1C)C(C)(C)CCC2(C)C [Bexarotene],Pin1 binding among retinoids tested,Pin1 PPIase domain,only marginal Pin1 interaction
CC1=C(/C=C/C(C)=C/C=C/C(C)=C/C(=O)Nc2ccc(O)cc2)C(C)(C)CCC1 [Fenretinide],Pin1 binding among retinoids tested,Pin1 PPIase domain,only marginal Pin1 interaction
CCOC(=O)CN1C(=O)c2ccc3c4c(ccc(c24)C1=O)C(=O)N(CC(=O)OCC)C3=O [PiB],PML-RARα degradation,[3],induced PML-RARα degradation in a dose-dependent manner
same,Pin1 degradation,[3],inhibited Pin1 without degrading it
O=C1CCc2c(ccc3ccccc23)O1 [Splito],effect on anticancer effects of low dose ATRA,NB4 cells,greatly potentiated
same,effect on ATRA sensitivity,AU565 cells,increase ATRA sensitivity
CC1=C(/C=C/C(C)=C/C=C/C(C)=C/CO)C(C)(C)CCC1 [retinol],Pin1 binding among retinoids tested,Pin1 PPIase domain,completely inactive
CCCCCCCCCCCCCCCc1cccc(O)c1C(=O)O [Anacardic acid],effect on p300-increased Pin1 acetylation,Pin1 acetylation; p300 over-expressed,reversed
CC1=C(/C=C/C(C)=C/C=C/C(C)=C/C=O)C(C)(C)CCC1 [retinal],Pin1 binding among retinoids tested,Pin1 PPIase domain,completely inactive
NC(=O)c1cccnc1 [NAM],effect on anticancer effects of low dose ATRA,NB4 cells,greatly potentiated
same,increase of ATRA sensitivity,AU565 cells,2 orders of magnitude
Bth-d-phos.Thr-Pip-Nal [pTide],binding to Pin1 S71E mutant,Pin1 S71E mutant,unable to bind
same,Kd,Pin1 [6],1.2 nM
same,ability to enter cells,cells,cannot enter cells
"O=CC[C@@H](O)[C@H](O)[C@H](O)CO [2-DG, 2-deoxyglucose]",Pin1 acetylation,Pin1 acetylation; mimic of glucose starvation,reduction in Pin1 acetylation in a time- or dose-dependent manner
O=C(O)c1ccccc1O [salicylic acid],interaction with Pin1 in FP assay,Pin1 PPIase domain,negative control
